Our source for the IC50 values is US6635771B2, “N-benzhydryl indole compounds” (Wyeth, priority 2001, dated 2003).

The assay has as its target T1, cPLA2 (Homo sapiens, UniProt P47712).
T1 sequence (P47712 1-749): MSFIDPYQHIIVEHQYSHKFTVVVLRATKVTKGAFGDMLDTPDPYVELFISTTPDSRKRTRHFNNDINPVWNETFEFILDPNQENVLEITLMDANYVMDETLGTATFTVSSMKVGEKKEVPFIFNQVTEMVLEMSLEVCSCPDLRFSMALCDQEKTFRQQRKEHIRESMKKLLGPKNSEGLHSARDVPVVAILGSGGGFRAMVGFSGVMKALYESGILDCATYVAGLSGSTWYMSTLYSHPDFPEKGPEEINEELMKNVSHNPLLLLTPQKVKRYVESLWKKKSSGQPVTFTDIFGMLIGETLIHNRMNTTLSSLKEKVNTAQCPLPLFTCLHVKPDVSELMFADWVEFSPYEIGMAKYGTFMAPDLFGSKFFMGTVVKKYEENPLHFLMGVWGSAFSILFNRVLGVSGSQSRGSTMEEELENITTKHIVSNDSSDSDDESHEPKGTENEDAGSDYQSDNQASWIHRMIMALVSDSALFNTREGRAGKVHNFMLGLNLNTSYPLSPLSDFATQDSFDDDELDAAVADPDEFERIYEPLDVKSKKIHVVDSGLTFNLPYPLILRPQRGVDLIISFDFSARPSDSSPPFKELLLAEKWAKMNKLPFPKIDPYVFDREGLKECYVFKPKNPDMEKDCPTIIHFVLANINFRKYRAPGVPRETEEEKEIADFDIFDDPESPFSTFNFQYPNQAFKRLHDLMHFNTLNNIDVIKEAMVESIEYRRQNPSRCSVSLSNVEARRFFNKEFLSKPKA
The assay is described as follows: Coumarine Assay. To be noted: 60 μM 7-hydroxycoumarinyl 6-heptenoate substrate, 4 μg cPLA2, pH 7.5, fluorescence ex 360 nm / em 460 nm; read-out: Coumarin IC50. Type of assay: biochemical.

Experimental: Inhibitors were mixed with 200 μL assay buffer (80 mM Heped, pH 7.5, 1 mM EDTA) containing 60 μM 7-hydroxycoumarinyl 6-heptenoate. The reaction was initiated by adding 4 μg cPLA2 in 50 μL assay buffer. Hydrolysis of the 7-hydroxycounarimyl 6-heptenoate ester was monitored in a fluorometer by exciting at 360 nm and monitoring emission at 460 nm. Enzyme activity is proportional to the increase in emission at 460 nm per minute. In the presence of a cPLA2 inhibitor, the rate of increase is less.

Regarding `O=C(O)c1ccc(CCCc2c(CCNS(=O)(=O)Cc3ccncc3)n(C(c3ccccc3)c3ccccc3)c3ccc(Cl)cc23)cc1` [Example 63, 4-{3-[1-benzhydryl-5-chloro-2-(2-{[(4-pyridinylmethyl)sulfonyl]amino}ethyl)-1H-indol-3-yl]propyl}benzoic acid], the IC50 came to 300 nM. Regarding `CN(C)S(=O)(=O)NCCc1c(CCOc2ccc(C(=O)O)cc2)c2cc(Cl)ccc2n1C(c1ccccc1)c1ccccc1` [Example 17, 4-{2-[1-Benzhydryl-5-chloro-2-(2-{[(dimethylamino)sulfonyl]amino}ethyl)-1H-indol-3-yl]ethoxy}benzoic acid], the half-maximal inhibitory concentration (IC50) amounted to 200 nM. With `O=C(O)c1ccc(OCCc2c(CCNS(=O)(=O)Cc3ccc(Cl)c(Cl)n3)n(C(c3ccccc3)c3ccccc3)c3ccc(Cl)cc23)cc1` [Example 76], the IC50 was determined as 400 nM.

Turning to `O=C(O)c1ccc(OCCc2c(CCNS(=O)(=O)Cc3ccsc3)n(C(c3ccccc3)c3ccccc3)c3ccc(Cl)cc23)cc1` [Example 112, 4-{2-[1-Benzhydryl-5-chloro-2-(2-{[(3-thienylmethyl)sulfonyl]amino}ethyl)-1H-indol-3-yl]ethoxy}benzoic acid], the half-inhibitory concentration (IC50) amounted to 1200 nM.

Consider `O=C(O)c1ccc(OCCc2c(CCNS(=O)(=O)Cc3nc4ccccc4o3)n(C(c3ccccc3)c3ccccc3)c3ccc(Cl)cc23)cc1` [Example 110, 4-{2-[1-Benzhydryl-2-(2-{[(1,3-benzoxazol-2-ylmethyl)sulfonyl]amino}ethyl)-5-chloro-1H-indol-3-yl]ethoxy}benzoic acid], for which the IC50 stood at 500 nM. The figure for `O=C(O)c1ccc(CCCc2c(CCNS(=O)(=O)CCN3CCOCC3)n(C(c3ccccc3)c3ccccc3)c3ccc(Cl)cc23)cc1` [Example 100, 4-(3-{1-Benzhydryl-5-chloro-2-[2-(2-morpholin-4-yl-ethanesulfonylamino)-ethyl]-1H-indol-3-yl}-propyl)-benzoic acid] is 120 nM; for `O=C(O)c1ccc(OCCc2c(CCNS(=O)(=O)Cc3c(Cl)cccc3Cl)n(C(c3ccccc3)c3ccccc3)c3ccc(Cl)cc23)cc1` [Example 73, 4-{2-[1-Benzhydryl-5-chloro-2-(2-{[(2-dichlorobenzyl)sulfonyl]amino}ethyl)-1H-indol-3-yl]ethoxy}benzoic acid] it is 300 nM.

Turning to `CC(C)S(=O)(=O)NCCc1c(CCOc2ccc(C(=O)O)cc2)c2cc(Cl)ccc2n1C(c1ccccc1)c1ccccc1` [Example 2, 4-[2-(1-Benzhydryl-5-chloro-2-{2-[(isopropylsulfonyl)amino]ethyl}-1H-indol-3-yl)ethoxy]benzoic acid], the 50% inhibitory concentration (IC50) was found to be 2000 nM. The figure for `CS(=O)(=O)CS(=O)(=O)NCCc1c(CCOc2ccc(C(=O)O)cc2)c2cc(Cl)ccc2n1C(c1ccccc1)c1ccccc1` [Example 7, 4-(2-(1-Benzhydryl-5-chloro-2-[2-({[(methylsulfonyl)methyl]sulfonyl}amino)ethyl]-1H-indol-3-yl}ethoxy)benzoic acid] is 550 nM; for `O=C(O)c1ccc(OCCc2c(CCNS(=O)(=O)Cc3c(Cl)cccc3Cl)n(C(c3ccccc3)c3ccccc3)c3ccc(Cl)cc23)cc1` [Example 80, 4-{2-[1-Benzhydryl-5-chloro-2-(2-{[(2,6-dichlorobenzyl)sulfonyl]amino}ethyl)-1H-indol-3-yl]ethoxy}benzoic acid] it is 3700 nM; for `O=C(O)c1ccc(OCCc2c(CCNS(=O)(=O)Cc3c(F)cccc3F)n(C(c3ccccc3)c3ccccc3)c3ccc(Cl)cc23)cc1` [Example 74] it is 280 nM. The figure for `Cc1ccn(CCS(=O)(=O)NCCc2c(CCOc3ccc(C(=O)O)cc3)c3cc(Cl)ccc3n2C(c2ccccc2)c2ccccc2)n1` [Example 94, 4-(2-{1-benzhydryl-5-chloro-2-[2-({[2-(3-methyl-1H-pyrazol-1-yl)ethyl]sulfonyl}amino)ethyl]-1H-indol-3-yl}ethoxy)benzoic acid] is 800 nM; for `O=C(O)c1ccc(CCCc2c(CCNS(=O)(=O)Cc3cccc(Cl)c3)n(C(c3ccccc3)c3ccccc3)c3ccc(Cl)cc23)cc1` [Example 66, 4-{3-[1-benzhydryl-5chloro-2-(2{[(3-chlorobenzyl)sulfonyl]amino}ethyl)-1H-indol-3-yl]propyl}benzoic acid] it is 150 nM. With `O=C(O)c1ccc(OCCc2c(CCNS(=O)(=O)Cc3ccccn3)n(C(c3ccccc3)c3ccccc3)c3ccc(Cl)cc23)cc1` [Example 51], the IC50 was 2200 nM.

Consider `O=C(O)c1ccc(OCCc2c(CCNS(=O)(=O)Cc3ccc(F)c(F)c3)n(C(c3ccccc3)c3ccccc3)c3ccc(Cl)cc23)cc1` [Example 18, 4-{2-[1-Benzhydryl-5-chloro-2-(2{[(3,4-difluorobenzyl)sulfonyl]amino}-ethyl)-1H-indol-3-yl]ethoxy}benzoic acid], for which the half-maximal inhibitory concentration (IC50) came out at 400 nM. Regarding `O=C(O)c1ccc(S(=O)(=O)CCc2c(CCNS(=O)(=O)Cc3ccccc3F)n(C(c3ccccc3)c3ccccc3)c3ccc(Cl)cc23)cc1` [Example 138, 4-({2-[1-benzhydryl-5-chloro-2-(2-{[(2-fluorobenzyl)sulfonyl]amino}ethyl)-1H-indol-3-yl]ethyl}sulfonyl)benzoic acid], the IC50 came out at 200 nM. On to `O=C(O)c1ccc(OCCc2c(CCNS(=O)(=O)Cc3ccc(S(=O)(=O)N4CCCCC4)cc3)n(C(c3ccccc3)c3ccccc3)c3ccc(Cl)cc23)cc1` [Example 38, 4-(2-{1-Benzhydryl-5-chloro-2-[2-({[4-(1piperidinylsulfonyl)benzyl]sulfonyl}amino)ethyl]-1H-indol-3-yl}ethoxy)benzoic acid], for which the concentration for half-maximal inhibition (IC50) was determined as 500 nM. In the case of `CC1CCCC(C)N1CCS(=O)(=O)NCCc1c(CCCc2ccc(C(=O)O)cc2)c2cc(Cl)ccc2n1C(c1ccccc1)c1ccccc1` (stereo not drawn) [Example 101, 4-[3-(1-Benzhydryl-5-chloro-2-{2-[2-(2,6-dimethyl-piperidin-1-yl)-ethanesulfonylamino]-ethyl}-1H-indol-3-yl)-propyl]-benzoic acid], the IC50 was 100 nM. Turning to `O=C(O)c1ccc(OCCc2c(CCNS(=O)(=O)CCN3CCN(c4ccccn4)CC3)n(C(c3ccccc3)c3ccccc3)c3ccc(Cl)cc23)cc1` [Example 91, 4-[2-(1-benzhydryl-5-chloro-2-{2-[({2-[4-(2-pyridinyl)-1-piperazinyl]ethyl}sulfonyl)amino]ethyl}-1H-indol-3-yl)ethoxy]benzoic acid], the IC50 amounted to 500 nM. `O=C(O)c1ccc(OCCc2c(CCNS(=O)(=O)Cc3ccc(Cl)cc3Cl)n(C(c3ccccc3)c3ccccc3)c3ccc(Cl)cc23)cc1` [Example 30, 4-{2-[1-benzhydryl-5-chloro-2-(2-{[(2,4-dichlorobenzyl)sulfonyl]amino}ethyl)-1H-indol-3-yl]ethoxy}benzoic acid]: the IC50 stood at 150 nM. On to `O=C(O)c1ccc(CCCc2c(CCNS(=O)(=O)Cc3ccccc3)n(C(c3ccccc3)c3ccccc3)c3ccc(Cl)cc23)cc1` [Example 42, 4-{3-[1-Benzhydryl-5-chloro-2-(2-phenylmethanesulfonylamino-ethyl)-1H-indol-3-yl]-propyl)-benzoic acid], for which the IC50 came out at 180 nM.

As to `O=C(O)c1ccc(OCCc2c(CCNS(=O)(=O)Cc3cccnc3)n(C(c3ccccc3)c3ccccc3)c3ccc(Cl)cc23)cc1` [Example 49], the half-maximal inhibitory concentration (IC50) came out at 1100 nM. As to `O=C(O)c1ccc(CCCc2c(CCNS(=O)(=O)Cc3cccc([N+](=O)[O-])c3)n(C(c3ccccc3)c3ccccc3)c3ccc(Cl)cc23)cc1` [Example 65, 4-{3-[1-benzhydryl-5-chloro-2-(2-{[(3-nitrobenzyl)sulfonyl]amino}ethyl)-1H-indol-3-yl]propyl}benzoic acid], the half-maximal inhibitory concentration (IC50) turned out to be 130 nM. For `O=C(O)c1ccc(OCCc2c(CCNS(=O)(=O)CCN3CCCCC3)n(C(c3ccccc3)c3ccccc3)c3ccc(Cl)cc23)cc1` [Example 117], the 50% inhibitory concentration (IC50) is 1600 nM. Regarding `O=C(O)c1ccc(OCCc2c(CCNS(=O)(=O)CC3CCCCO3)n(C(c3ccccc3)c3ccccc3)c3ccc(Cl)cc23)cc1` (stereo not drawn) [Example 109, 4-{2-[1-Benzhydryl-5-chloro-2-(2-{[(tetrahydro-2H-pyran-2-ylmethyl)sulfonyl]amino}ethyl)-1H-indol-3-yl]ethoxy}benzoic acid], the IC50 was determined as 400 nM. On to `O=C(O)c1ccc(OCCc2c(CCNS(=O)(=O)c3ccccc3C(=O)O)n(C(c3ccccc3)c3ccccc3)c3ccc(Cl)cc23)cc1` [Example 25, 2-{[(2-{1-benzhydryl-3-[2-(4-carboxyphenoxy)ethyl]-5-chloro-1H-indol-2-yl}ethyl)amino]sulfonyl}benzoic acid], for which the IC50 is 3400 nM. Consider `O=C(O)CCc1ccc(S(=O)(=O)CCc2c(CCNS(=O)(=O)Cc3ccccc3F)n(C(c3ccccc3)c3ccccc3)c3ccc(Cl)cc23)cc1` [Example 132, 3-[4-({2-[1-benzhydryl-5-chloro-2-(2-{[(2-fluorobenzyl)sulfonyl]amino}ethyl)-1H-indol-3-yl]ethyl}sulfonyl)phenyl] propanoic acid], for which the concentration for half-maximal inhibition (IC50) amounted to 200 nM.
